A word on the EC50: it is the concentration needed to bring the measured effect to its halfway point.

This note sets out measurements from ChEMBL document CHEMBL4823284, “Design, synthesis and biological evaluation of double fatty chain-modified glucagon-like peptide-1 conjugates” (Bioorg Med Chem, 2021).

The target of data set [1] is T1, Glucagon-like peptide 1 receptor (Homo sapiens, UniProt P43220). Put plainly: Activation of GLP1R (unknown origin) CRE-bla expressed in CHO-K1 cells assessed as receptor potency incubated for 1 hrs by time resolved fluorescence resonance energy transfer immunoassay. In kind it is functional, cell-based.
T1 sequence (P43220 whole entry): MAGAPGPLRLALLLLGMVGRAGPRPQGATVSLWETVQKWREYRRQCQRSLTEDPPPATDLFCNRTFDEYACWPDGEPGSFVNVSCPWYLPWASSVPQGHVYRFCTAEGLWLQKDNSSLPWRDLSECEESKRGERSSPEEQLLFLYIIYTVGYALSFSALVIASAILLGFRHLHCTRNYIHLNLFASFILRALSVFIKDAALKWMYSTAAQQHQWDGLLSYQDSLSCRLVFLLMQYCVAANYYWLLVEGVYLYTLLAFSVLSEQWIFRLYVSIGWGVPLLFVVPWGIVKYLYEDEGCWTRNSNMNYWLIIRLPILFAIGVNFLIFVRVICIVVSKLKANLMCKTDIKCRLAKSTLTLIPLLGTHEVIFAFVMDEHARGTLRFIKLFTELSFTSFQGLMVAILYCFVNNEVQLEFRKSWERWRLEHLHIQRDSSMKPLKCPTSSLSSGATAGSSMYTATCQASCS
In data set [2] the test system is Mus musculus. In words: Hypoglycemic effect in intragastric starch treated mouse assessed as decrease in glucose AUC at 30 nmol/kg, sc measured up to 24 hrs. Type of data set: functional, organism-based. To be noted: time hrs <=24.
The test system of data set [3] is Mus musculus. In words: Hypoglycemic effect in intragastric starch treated mouse assessed as reduction in blood glucose level at 30 nmol/kg, sc measured up to 24 hrs. In kind it is functional, organism-based. To be noted: time hrs <=24.
Data set [4] deals with T1, Glucagon-like peptide 1 receptor. In words: Binding affinity to GLP1R (unknown origin) assessed as equilibrium constant by surface plasmon resonance analysis. To be noted: filed as activator.
Data set [5] has the same target. Put plainly: Binding affinity to GLP1R (unknown origin) assessed as binding rate constant by surface plasmon resonance analysis. To be noted: filed as activator.
Data set [6] has as its system Mus musculus. In words: Hypoglycemic effect in intragastric starch treated mouse assessed as reduction in blood glucose level at 30 nmol/kg, sc measured at 1.5 hrs. In kind it is functional, organism-based.
Data set [7] can be described thus: Toxicity in mouse assessed as change in body weight at 30 nmol/kg, sc measured at 1.5 hrs. Type of data set: organism-based. To be noted: in vivo.
A further data set concerns the target Albumin (Homo sapiens, UniProt P02768). In words: Binding affinity to albumin (unknown origin) after 8 hrs by HPLC analysis. To be noted: isolated protein. On the set-up: concentration or dose not given beside the values. In kind it is ADME.
Data set [8] addresses T1, Glucagon-like peptide 1 receptor. In words: Binding affinity to GLP1R (unknown origin) assessed as dissociation rate constant by surface plasmon resonance analysis. In general terms: Surface plasmon resonance follows binding to a sensor surface in real time, without labels.

Active and inactive are the calls of the source. The calls are words filed in the database; no cut-off is given here. Some results are limits rather than exact numbers.

Albumin, sequence (P02768 whole entry): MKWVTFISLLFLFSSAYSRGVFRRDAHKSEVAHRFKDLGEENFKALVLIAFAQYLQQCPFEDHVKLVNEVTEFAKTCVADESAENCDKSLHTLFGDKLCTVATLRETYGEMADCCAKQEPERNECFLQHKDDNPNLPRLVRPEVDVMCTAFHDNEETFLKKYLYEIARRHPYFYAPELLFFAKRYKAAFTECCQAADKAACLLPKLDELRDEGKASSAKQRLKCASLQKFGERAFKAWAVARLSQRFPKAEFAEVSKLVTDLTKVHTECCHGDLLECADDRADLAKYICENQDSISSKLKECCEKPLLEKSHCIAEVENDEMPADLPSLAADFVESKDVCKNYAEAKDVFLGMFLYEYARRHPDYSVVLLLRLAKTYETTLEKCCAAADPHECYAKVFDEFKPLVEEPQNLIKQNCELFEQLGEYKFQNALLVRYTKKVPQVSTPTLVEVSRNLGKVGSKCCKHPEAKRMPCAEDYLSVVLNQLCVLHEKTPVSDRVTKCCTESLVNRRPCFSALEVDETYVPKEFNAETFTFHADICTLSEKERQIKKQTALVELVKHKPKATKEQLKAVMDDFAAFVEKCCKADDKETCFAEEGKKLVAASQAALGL

For `CCCCCCCCCCCCCCCC(=O)N[C@@H](CCC(=O)NCCCC[C@H](NC(=O)CC[C@H](NC(=O)CCCCCCCCCCCCCCC)C(=O)O)C(=O)NCCOCCOCC(=O)NCCOCCOCC(=O)O)C(=O)O`, the EC50 in data set [1] was determined as 78.8 pM.
For SEMAGLUTIDE [listing 1 of 2 here], the outcome in the data set on Mus musculus [2], in the data set with Mus musculus [3] and with Mus musculus [6] was Active. Further, the Ke in [4] is 1.33 10^-6M. For the same compound, in [5], the Ka was 9.24 10^4/Ms.
Turning to `CCCCCCCCCCCCCC(=O)N[C@@H](CCC(=O)NCCCC[C@H](NC(=O)CC[C@H](NC(=O)CCCCCCCCCCCCC)C(=O)O)C(=O)NCCOCCOCC(=O)NCCOCCOCC(=O)O)C(=O)O`, the EC50 in data set [1] was 6.6 pM. Moreover, the result in the data set with Mus musculus [2] was Active. In addition, the Activity result in [7] is on record as “Toxic”.
Take SEMAGLUTIDE [listing 2 of 2 here]: the Activity entry in [7] is listed as “Toxic”; on Albumin, over 99%.
On to `CCCCCCCCCC(=O)N[C@@H](CCC(=O)NCCCC[C@H](NC(=O)CC[C@H](NC(=O)CCCCCCCCC)C(=O)O)C(=O)NCCOCCOCC(=O)NCCOCCOCC(=O)NCCOCCOCC(=O)O)C(=O)O`, for which the EC50 in data set [1] was 132 pM. Further, at Albumin, the Activity worked out at 86%.
Consider `CCCCCCCCCCCC(=O)N[C@@H](CCC(=O)NCCCC[C@H](NC(=O)CC[C@H](NC(=O)CCCCCCCCCCC)C(=O)O)C(=O)NCCOCCOCC(=O)NCCOCCOCC(=O)NCCOCCOCC(=O)O)C(=O)O`, for which the EC50 in [1] came to 5.1 pM. Moreover, the result with Mus musculus [2], in the data set on Mus musculus [3] and in the data set with Mus musculus [6] was Active. Besides, in data set [8], the “Dissociation rate constant (koff)” value was 2.37 10^-2/s. In addition, the Ke in data set [4] was 7.25 10^-6M. The Activity entry is “Toxic” in data set [7] and 91.6% on Albumin. The Ka in data set [5] was 3.26 10^3/M/s.
For the compound `CCCCCCCCCCCCCC(=O)N[C@@H](CCC(=O)NCCCC[C@H](NC(=O)CC[C@H](NC(=O)CCCCCCCCCCCCC)C(=O)O)C(=O)NCCOCCOCC(=O)NCCOCCOCC(=O)NCCOCCOCC(=O)O)C(=O)O`, the EC50 in data set [1] worked out at 1.6 pM. For the same compound, the outcome in the data set on Mus musculus [2], in the data set with Mus musculus [3] and in the data set with Mus musculus [6] was Active. Moreover, the Activity entry in data set [7] is reported as “Toxic”.
As to `CCCCCCCCCC(=O)N[C@@H](CCC(=O)NCCCC[C@H](NC(=O)CC[C@H](NC(=O)CCCCCCCCC)C(=O)O)C(=O)NCCOCCOCC(=O)NCCOCCOCC(=O)O)C(=O)O`, the EC50 in data set [1] was found to be 200 pM. Moreover, on Albumin, the Activity was 90.2%.
With `CCCCCCCCCCCC(=O)N[C@@H](CCC(=O)NCCCC[C@H](NC(=O)CC[C@H](NC(=O)CCCCCCCCCCC)C(=O)O)C(=O)NCCOCCOCC(=O)O)C(=O)O`, in data set [1], the EC50 turned out to be 14.2 pM. Besides, the outcome in the data set on Mus musculus [2], in the data set on Mus musculus [3] and in the data set with Mus musculus [6] was Active. Moreover, in data set [8], the “Dissociation rate constant (koff)” value is 6.5 10^-3/s. For the same compound, the Ke in [4] was 5.85 10^-6M. Besides, the Activity entry is listed as “Toxic” in [7] and over 99% on Albumin. Also, the Ka in data set [5] was 1.11 10^3/M/s.
As to `CCCCCCCCCCCC(=O)N[C@@H](CCC(=O)NCCCC[C@H](NC(=O)CC[C@H](NC(=O)CCCCCCCCCCC)C(=O)O)C(=O)NCCOCCOCC(=O)NCCOCCOCC(=O)O)C(=O)O`, in [1], the half-maximal effective concentration (EC50) stood at 10.1 pM. The outcome in the data set with Mus musculus [2], in the data set on Mus musculus [3] and with Mus musculus [6] was Active. In [8], the “Dissociation rate constant (koff)” value is on record as 8.57 10^-3/s. In addition, the Ke in [4] was 1.44 10^-5M. Also, the Activity result in [7] is recorded as “Toxic”; on Albumin, 94.3%. Besides, in data set [5], the Ka was 5.97 10^2/Ms.
As to `CCCCCCCCCC(=O)N[C@@H](CCC(=O)NCCCC[C@H](NC(=O)CC[C@H](NC(=O)CCCCCCCCC)C(=O)O)C(=O)NCCOCCOCC(=O)O)C(=O)O`, the EC50 in [1] amounted to 143 pM. Further, the Activity at Albumin was 94.5%.
As to `CCCCCCCCCCCCCC(=O)N[C@@H](CCC(=O)NCCCC[C@H](NC(=O)CC[C@H](NC(=O)CCCCCCCCCCCCC)C(=O)O)C(=O)NCCOCCOCC(=O)O)C(=O)O`, the EC50 in data set [1] was determined as 9.6 pM. Moreover, the outcome in the data set on Mus musculus [3] and in the data set on Mus musculus [6] was Active. Besides, the Activity result in data set [7] is on record as “Toxic”.
For the compound `CCCCCCCCCCCCCCCC(=O)N[C@@H](CCC(=O)NCCCC[C@H](NC(=O)CC[C@H](NC(=O)CCCCCCCCCCCCCCC)C(=O)O)C(=O)NCCOCCOCC(=O)O)C(=O)O`, the EC50 in [1] was determined as 72.3 pM.
With `CCCCCCCCCCCCCCCC(=O)N[C@@H](CCC(=O)NCCCC[C@H](NC(=O)CC[C@H](NC(=O)CCCCCCCCCCCCCCC)C(=O)O)C(=O)NCCOCCOCC(=O)NCCOCCOCC(=O)NCCOCCOCC(=O)O)C(=O)O`, the EC50 in data set [1] was found to be 27.4 pM.
